Active and inactive are the calls of the source.
Experiments:
[1] = A cytotoxicity screen of small molecule inhibitors of the PhoP region in Salmonella typhi identified in the primary screen. [Related pubchem assays: 1850, 1864, 1985 ]; format: functional
[2] = target: Glyceraldehyde-3-phosphate dehydrogenase (Homo sapiens, UniProt P04406)
[3] = HEK-293T cell viability reduction – luminescence, B-cell screen hits, cytotoxicity control for BCR NF-kB inhibitor project, dose response (AID 489021); format: functional, cell-based;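 further: HEK-293T cells carrying an NF-kB luciferase reporter; cells exposed to compound for about 14 hours before viability readout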
[4] = target: Eukaryotic translation initiation factor 4E (Mus musculus, UniProt P63073); assay: blockers of eIF4G binding by eIF4E – biochemical, TR-FRET, dose response (AID 855); format: functional;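 further: potency for disrupting eIF4E binding to eIF4GI seen as loss of FRET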
[5] = target: Troponin, cardiac muscle (Homo sapiens, UniProt P19429+P45379+P63316); assay: Fluorescence-based biochemical high throughput dose response assay for activators of the calcium sensitivity of cardiac Regulated Thin Filaments (RTF). [Related pubchem assays (depositor defined):AID493008, AID493018, AID504382, AID504383]; format: protein-complex assay
[6] = cells; format: functional
[7] = tested on: Escherichia coli; assay: microbe, parasite or virus in culture
[8] = viability loss in THP-1 monocytes – THP-1 cells, cytotoxicity control for Vif-APOBEC3G degradation inhibitor project, dose response (AID 1117359); format: functional; settings: THP-1
[9] = target: T1, Protein skinhead-1 (Caenorhabditis elegans, UniProt P34707); format: functional
T1 sequence (P34707 whole entry): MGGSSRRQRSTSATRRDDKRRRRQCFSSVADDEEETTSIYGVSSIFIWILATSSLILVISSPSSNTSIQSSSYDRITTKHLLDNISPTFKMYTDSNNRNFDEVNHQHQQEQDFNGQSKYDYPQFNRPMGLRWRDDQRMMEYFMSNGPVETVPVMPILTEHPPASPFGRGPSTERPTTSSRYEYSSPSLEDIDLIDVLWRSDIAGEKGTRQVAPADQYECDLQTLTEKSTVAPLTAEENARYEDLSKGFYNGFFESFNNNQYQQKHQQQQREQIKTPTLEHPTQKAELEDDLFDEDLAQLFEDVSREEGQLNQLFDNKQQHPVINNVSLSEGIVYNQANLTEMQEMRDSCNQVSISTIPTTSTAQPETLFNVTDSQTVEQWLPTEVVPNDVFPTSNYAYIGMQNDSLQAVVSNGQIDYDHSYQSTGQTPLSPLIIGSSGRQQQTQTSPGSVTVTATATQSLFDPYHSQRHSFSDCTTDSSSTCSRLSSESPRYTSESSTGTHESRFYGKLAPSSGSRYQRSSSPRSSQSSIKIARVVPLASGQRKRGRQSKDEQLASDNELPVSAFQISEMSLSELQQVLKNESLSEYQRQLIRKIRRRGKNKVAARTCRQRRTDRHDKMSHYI

[10] = viability of uninfected HEp-2 cells – cell-based, HTS, cytotoxicity control for RSV inhibitor project, dose response (AID 2410); format: functional; settings: human respiratory syncytial virus
[11] = tested on: Vero; assay: cells; format: functional; settings: Chlorocebus sabaeus
[12] = Luminescence Cell-Based Dose Confirmation HTS to Identify Activators of 5'UTR Stem-Loop Driven Alpha-Synuclein mRNA Translation in H4 Neuroglioblastoma Cells. [Related pubchem assays: 1829 (Project Summary), 1814 (Primary HTS)]; format: functional
[13] = tested on: H4; assay: Luminescence Cell-Based Dose Response HTS to Identify Activators of 5'UTR Stem-Loop Driven Prion Protein mRNA Translation in H4 Neuroglioblastoma Cells. [Related pubchem assays: 1829 (Project Summary), 1814 (Primary HTS)]; format: functional; settings: Homo sapiens
[14] = target: T2, Protein RecA (Mycobacterium tuberculosis, UniProt P9WHJ3); assay: Fluorescence Cell-Free Homogeneous Dose Retest to Identify Inhibitors of RecA-Intein Splicing Activity. [Related pubchem assays (depositor defined):AID2097, AID2223, AID489010, AID492950]; format: functional
T2 sequence (P9WHJ3 whole entry): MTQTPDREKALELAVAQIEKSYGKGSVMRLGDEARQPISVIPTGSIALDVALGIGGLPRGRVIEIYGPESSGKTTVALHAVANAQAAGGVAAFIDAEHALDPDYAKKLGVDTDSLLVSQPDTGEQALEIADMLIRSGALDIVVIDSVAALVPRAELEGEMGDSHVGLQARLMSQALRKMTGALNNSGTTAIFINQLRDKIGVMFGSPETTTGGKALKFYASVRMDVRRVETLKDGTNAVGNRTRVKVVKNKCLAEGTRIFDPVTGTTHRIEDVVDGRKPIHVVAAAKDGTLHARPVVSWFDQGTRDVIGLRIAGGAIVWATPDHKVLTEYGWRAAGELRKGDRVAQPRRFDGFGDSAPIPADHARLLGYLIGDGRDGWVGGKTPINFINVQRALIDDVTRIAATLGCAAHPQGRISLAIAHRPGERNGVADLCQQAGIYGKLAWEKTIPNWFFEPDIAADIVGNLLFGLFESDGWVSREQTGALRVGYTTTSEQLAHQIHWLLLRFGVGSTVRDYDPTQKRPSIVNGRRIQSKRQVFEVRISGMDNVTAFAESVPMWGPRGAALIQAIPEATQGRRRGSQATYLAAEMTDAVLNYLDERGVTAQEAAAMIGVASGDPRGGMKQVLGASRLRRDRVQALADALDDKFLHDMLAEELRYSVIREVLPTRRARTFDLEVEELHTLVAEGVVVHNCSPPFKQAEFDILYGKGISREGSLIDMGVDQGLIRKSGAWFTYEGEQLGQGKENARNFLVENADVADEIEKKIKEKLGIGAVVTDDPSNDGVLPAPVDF

[15] = target: T3, Replicative DNA helicase DnaB (Mycobacterium tuberculosis, UniProt P9WMR3); assay: DnaB intein splicing inhibitors, dose response, biochemical, cell-free fluorescence (AID 449749); format: functional
T3 sequence (P9WMR3 whole entry): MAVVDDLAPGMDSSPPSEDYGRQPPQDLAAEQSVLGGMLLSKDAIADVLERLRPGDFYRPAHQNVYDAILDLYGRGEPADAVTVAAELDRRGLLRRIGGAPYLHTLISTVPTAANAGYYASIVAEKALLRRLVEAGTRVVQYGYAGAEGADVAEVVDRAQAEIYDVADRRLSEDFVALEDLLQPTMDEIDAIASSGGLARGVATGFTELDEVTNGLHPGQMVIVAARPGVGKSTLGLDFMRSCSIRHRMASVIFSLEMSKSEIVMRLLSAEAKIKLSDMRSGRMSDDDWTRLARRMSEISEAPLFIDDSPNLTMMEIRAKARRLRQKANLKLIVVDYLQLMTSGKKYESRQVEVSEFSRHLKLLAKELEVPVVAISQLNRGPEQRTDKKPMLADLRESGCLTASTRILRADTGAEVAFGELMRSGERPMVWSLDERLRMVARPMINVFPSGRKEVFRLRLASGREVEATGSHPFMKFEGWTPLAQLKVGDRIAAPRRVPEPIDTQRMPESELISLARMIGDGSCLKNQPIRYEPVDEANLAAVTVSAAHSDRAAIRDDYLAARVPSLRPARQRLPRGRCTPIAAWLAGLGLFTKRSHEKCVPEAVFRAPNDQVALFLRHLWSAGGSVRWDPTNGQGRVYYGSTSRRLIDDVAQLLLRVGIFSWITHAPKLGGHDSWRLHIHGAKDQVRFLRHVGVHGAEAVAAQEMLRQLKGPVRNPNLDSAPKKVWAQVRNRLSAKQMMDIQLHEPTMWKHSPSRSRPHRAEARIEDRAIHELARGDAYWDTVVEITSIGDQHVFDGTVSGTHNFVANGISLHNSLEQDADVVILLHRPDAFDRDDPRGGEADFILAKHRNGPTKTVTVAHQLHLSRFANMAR

[16] = Luminescence Cell-Based Dose Response HTS to Identify Activators of Luciferase Translation or Activity in H4 […] Cells. [Related pubchem assays: 1829 (Project Summary), 1814 (Primary HTS)]; format: functional
[17] = target: T4, SUMO-activating enzyme (Homo sapiens, UniProt Q9UBT2); assay: blockers of UBC9-mediated SUMO conjugation – biochemical, AlphaScreen, SUMOylation inhibitor project, confirmation (AID 2018); format: functional
[18] = target: T4, SUMO-activating enzyme; assay: blockers of SAE1/SAE2–UBC9 SUMO transfer – biochemical, HTRF, uHTS, primary screen (AID 2006); format: protein-complex assay
[19] = target: Heat shock protein HSP 90-alpha (Homo sapiens, UniProt P07900); format: functional, organism-based

CC(C)(C)Nc1c2ccccc2nc2ccccc12
EC50 [1]: > 50 µM (active)

O=C1C(Cl)=C(N2CCN(Cc3ccc4c(c3)OCO4)CC2)C(=O)N1c1ccc(Cl)nc1
IC50 [2]: > 50 µM (inconclusive)

N=c1c(C(=O)NC2CCCC2)cc2c(=O)n3ccccc3nc2n1CCN1CCOCC1
IC50 [3]: > 80 µM (inactive)

NC(=O)NC(=O)COC(=O)c1cccc(NS(=O)(=O)/C=C/c2ccccc2)c1
IC50 [4]: 50 µM (inactive) | EC50 [5]: > 71.5 µM (inactive)

COC(=O)C(C)Oc1cc(C)cc2oc(=O)c3c(c12)CCC3 (stereo unspecified)
IC50 [3]: > 80 µM (inactive)

Cc1cs/c(=N\c2cccnc2)n1CC1CCCCC1
IC50 [6]: > 50 µM (active)

O=C(CSC1=NS(=O)(=O)c2ccccc2N1)N1CCCCC1
EC50 [5]: > 71.5 µM (inactive)

O=C(Nc1ccc2c(c1)OCCO2)C1CCCN(S(=O)(=O)c2cccnc2)C1 (stereo unspecified)
AC50 [7]: 52.7 µM (active)

Cc1cc(C)c2nc(NC(=O)[C@@H](NC(=O)c3cccc(S(=O)(=O)N4CCOCC4)c3)C(C)C)sc2c1
IC50 [3]: > 80 µM (inactive)

CCN(CC)CCOC(=O)c1ccc(NC(=O)CCCN2C(=O)S/C(=C/c3ccc(OC)cc3)C2=S)cc1
IC50 [3]: > 80 µM (inactive)

CCOc1ccccc1NC(=O)Nc1ccncc1
EC50 [1]: > 50 µM (active)

N#Cc1ccc(S(=O)(=O)NC2CCCCNC2=O)cc1 (stereo unspecified)
EC50 [5]: > 71.4 µM (inactive)

C[C@H]1CN(C2=C(Cl)C(=O)N(c3ccc(C(F)(F)F)cc3)C2=O)CCN1
IC50 [2]: > 50 µM (inconclusive)

O=C(Cc1ccc(F)cc1)NC1CCCC1
EC50 [1]: > 50 µM (active)

O=C(CCNS(=O)(=O)c1cccc2nonc12)N1CCN(c2cccc(Cl)c2)CC1
EC50 [1]: > 50 µM (active)

O=[N+]([O-])c1ccc2nc(-c3ccccc3)oc2c1
CC50 [8]: > 40 µM (active) | IC50 [9]: 63.6 µM (inactive)

CC(=O)c1c(C)[nH]c(C(=O)CSc2nnc3ccccn23)c1C
AC50 [7]: 27 µM (active)

Cc1nc([N+](=O)[O-])c(Sc2nc3ccccc3n2C)n1Cc1ccccc1
CC50 [10]: 13.5 µM (active) | CC50 [11]: 20.8 µM (active)

CC(C)c1n[nH]c2c1C(c1ccco1)C(C#N)=C(N)O2 (stereo unspecified)
IC50 [3]: > 80 µM (inactive) | EC50 [12]: > 120 µM (not active) | EC50 [13]: 92.5 µM (active) | EC50 [14]: 3.05 µM (active) | AC50 [15]: 32.4 µM (active) | EC50 [16]: > 120 µM (not active)

NC(=O)CC(NC(=O)Cc1ccc(Br)cc1)c1ccc(N2CCC(Br)CC2)c([N+](=O)[O-])c1 (stereo unspecified)
IC50 [17]: 28.3 µM (active) | IC50 [18]: 34.5 µM (active)

O=C(NC1CC1)c1ccc(N2CCCCC2)c([N+](=O)[O-])c1
AC50 [7]: 73.1 µM (active)

N#C/C(=C\c1ccc([N+](=O)[O-])o1)C(=O)Nc1ccc(F)cc1
CC50 [8]: > 40 µM (active) | AC50 [19]: 0.444 µM (active)

COc1ccc(-c2nc3ccc(C)cc3c(=O)o2)cc1OC
IC50 [6]: 7.49 µM (active)

O=C(COC(=O)c1ccc(O)cc1O)c1ccc2c(c1)OCO2
IC50 [6]: 18.2 µM (active)

O=C(Nc1ccccc1)NC1CS(=O)(=O)CC1O (stereo unspecified)
EC50 [5]: > 71.5 µM (inactive)

COc1ccc(-c2[nH]ncc2CNC(C)c2ccccc2Cl)cc1F (stereo unspecified)
CC50 [11]: > 25 µM (active)

— ChEMBL document CHEMBL1201862, “PubChem BioAssay data set” (2004)
